From patent publication US20260258031A1, “CRYSTALLINE FORMS OF AN ESTROGEN RECEPTOR ANTAGONIST” (Olema Pharmaceuticals, Inc., priority 2022, published 2026)
“And” between values parts separate entries of the source, which are not always exact repeats. Identical values can stand only once.

How the values were obtained:
[1] = Kinetic solubility of Fumarate Form A Ethyl Acetate Solvate, solvent aliquot addition; type: physicochemical; details: thermodynamic from solid, ambient temperature
Description: The screen consisted primarily of long term slurry experiments. To help design screen experiments, kinetic solubilities of Fumarate Form A Ethyl Acetate Solvate were estimated. The estimation was done on a 3-11 mg scale using a solvent aliquot addition method, and dissolution was judged by visual observation. Solubilities are estimated at ambient temperature and reported to the nearest mg/mL; if complete dissolution was achieved by one aliquot addition, solubilities were reported as “>”;

[2] = co-former acid of salt screen; cited from earlier work
[3] = Stability in oven at 60° C. for two weeks (HPLC purity, XRPD); type: physicochemical; details: for HPLC Purity (%) 60° C.: after two weeks at 60° C.; for HPLC Purity (%) Starting: before storage; for XRPD change after storage / Stability relative to Amorphous Compound 1: two weeks at 60° C.; for HPLC Purity (%) Degradation: two weeks at 60° C. versus starting
Description: Amorphous Compound 1, Compound 1 Fumarate Form E, and Compound 1 Fumarate Form A Anhydrate were placed in an oven at 60° C. for two weeks to evaluate their stability.

[4] = Solubility in solvents, dynamic method; type: physicochemical; details: for solubility at 15 min: organic solvent or mixture, thermodynamic from solid, dynamic method
Description: […] Solubility was measured by the dynamic method and gravimetric method.
Dynamic method: Under the condition of a certain amount of solute and certain temperature, solvent was gradually added with stirring for 15 min to reach equilibrium. When solute is completely dissolved, amount of solvent was recorded and the solubility calculated.

[5] = Dynamic vapor sorption (DVS), hygroscopicity; type: physicochemical; details: for Hygroscopicity (%), water uptake: 25° C./80% RH
Description: DVS was performed using Intrinsic DVS ([…], UK). About 30-50 mg of sample was placed in a sample basked and hung in the measuring chamber. For an isotherm test, the chamber temperature was maintained by a water bath at a constant 25±1° C. The sample was tested at a targeted RH from 0 to 90% full cycle in step mode. The analysis was performed in 10% RH increments. Time duration at each RH was set as 60 min so that the sample could reach equilibrium with the chamber environment. Data were collected in 20 s increments.

[6] = Solubility, gravimetric method; type: physicochemical; details: H2O, 25° C.; for solubility: gravimetric method
Description: Solubility studies of Compound 1 and Compound 1 Fumarate in different solvents at 25° C. were performed. Solubility was measured by the dynamic method and gravimetric method.
Gravimetric method: Excess solids and a certain amount of solvent were added 8 mL vials, stirred for 24 hours, and filtered.

[7] = Competitive slurry experiments Form E / Form A Anhydrate (XRPD); type: physicochemical; details: 25° C. or 40° C.
Description: Competitive slurry experiments were performed with Compound 1 Fumarate Form E and Compound 1 Fumarate Form A Anhydrate, as follows:
Experiment #1: Compound 1 Fumarate Form E (100 mg), Compound 1 Fumarate Form A Anhydrate (100 mg), and isopropanol (2 mL) were added into two 8-mL vials and mixed well in a shaker at 25° C. and 40° C., respectively. Samples for analysis were taken at 24 h and 72 h.
Experiment #2: Compound 1 Fumarate Form E (100 mg), Compound 1 Fumarate Form A Anhydrate (100 mg), and water (2 mL) were added into two 8-mL vials and mixed well in a shaker at 25° C. and 40° C., respectively. Samples for analysis were taken at 24 h and 72 h.
Experiment #3: Compound 1 Fumarate Form E (100 mg), Compound 1 Fumarate Form A Anhydrate (100 mg), and ethyl acetate (2 mL) were added into two 8-mL vials and mixed well in a shaker at 25° C. and 40° C., respectively. Samples for analysis were taken at 24 h and 72 h.

[8] = Bulk density (untapped, graduated cylinder); type: physicochemical
Description: Bulk density of Compound 1 Fumarate Form E was measured by gently introducing a known sample mass into a graduated cylinder (50 mL), leveling the powder without compacting it, and recording the apparent untapped volume to the nearest graduated unit.

CCCN1CC(Oc2ccc([C@@H]3c4[nH]c5ccccc5c4C[C@@H](C)N3CC(C)(C)F)cc2)C1.O=C(O)/C=C/C(=O)O
solubility ([1]; aqueous with cosolvent or surfactant or cyclodextrin, IPA/water (50/50)): > 124000 µg/mL
solubility ([1]; organic solvent or mixture, 2-BuOH): 17000 µg/mL
solubility ([1]; organic solvent or mixture, 2-MeTHF): 32000 µg/mL
solubility ([1]; organic solvent or mixture, ACN, re-precipitated after first aliquot): < 2000 µg/mL
solubility ([1]; organic solvent or mixture, Anisole): < 1000 µg/mL
solubility ([1]; organic solvent or mixture, DCE): < 9000 µg/mL
solubility ([1]; organic solvent or mixture, DCE/EtOH (96/4)): ≥ 8000 µg/mL
solubility ([1]; organic solvent or mixture, Dioxane): > 104000 µg/mL
solubility ([1]; organic solvent or mixture, IPA): 20000 µg/mL
solubility ([1]; organic solvent or mixture, MIBK): 4000 µg/mL
solubility ([1]; organic solvent or mixture, MTBE): 2000 µg/mL
solubility ([1]; organic solvent or mixture, TFE): > 100000 µg/mL
solubility ([1]; organic solvent or mixture, t-BuOAc, re-precipitated after first aliquot): 1000 µg/mL

O=C1CC[C@@H](C(=O)O)N1 [(−)-L-Pyroglutamic acid]
pKa [2]: 3.32

CCCN1CC(Oc2ccc([C@@H]3c4[nH]c5ccccc5c4C[C@@H](C)N3CC(C)(C)F)cc2)C1 [Amorphous Compound 1, (1R,3R)-2-(2-fluoro-2-methylpropyl)-3-methyl-1-(4-((1-propylazetidin-3-yl)oxy)phenyl)-2,3,4,9-tetrahydro-1H-pyrido[3,4-b]indole]
HPLC Purity (%) 60° C. [3]: 98.94%
HPLC Purity (%) Starting [3]: 99.23%
XRPD change after storage [3]: No change
HPLC Purity (%) Degradation [3]: −0.29%
Solubility in isopropanol (in words) ([4]; 25° C.): high solubility
Hygroscopicity (%), water uptake [5]: hygroscopic (0.463) %
Form Change after DVS? [5]: No

CCCN1CC(Oc2ccc([C@@H]3c4[nH]c5ccccc5c4C[C@@H](C)N3CC(C)(C)F)cc2)C1.O=C(O)/C=C/C(=O)O [Compound 1 Fumarate Form A Anhydrate]
HPLC Purity (%) 60° C. [3]: 99.54%
HPLC Purity (%) Starting [3]: 99.58%
Stability relative to Amorphous Compound 1 [3]: improved stability
XRPD change after storage [3]: No change
HPLC Purity (%) Degradation [3]: −0.04%
Hygroscopicity (%), water uptake [5]: hygroscopic (0.108) %
Form Change after DVS? [5]: No
solubility [6]: 6500 µg/mL
Outcome of competitive slurry (XRPD) ([7]; ethyl acetate, after 72 h): a mixture of Compound 1 Fumarate Form E and Compound 1 Fumarate Form A Anhydrate remained
Outcome of competitive slurry (XRPD) ([7]; isopropanol, after 24 h): completely transformed into Compound 1 Fumarate Form E
Outcome of competitive slurry (XRPD) ([7]; water, after 72 h): a mixture of Compound 1 Fumarate Form E and Compound 1 Fumarate Form A Anhydrate remained

CCCN1CC(Oc2ccc([C@@H]3c4[nH]c5ccccc5c4C[C@@H](C)N3CC(C)(C)F)cc2)C1.O=C(O)/C=C/C(=O)O [Compound 1 Fumarate Form E]
HPLC Purity (%) 60° C. [3]: 99.50%
HPLC Purity (%) Starting [3]: 99.54%
Stability relative to Amorphous Compound 1 [3]: improved stability
XRPD change after storage [3]: No change
HPLC Purity (%) Degradation [3]: −0.05%
Solubility in isopropanol (in words) ([4]; 25° C.): very low solubility
Change of solubility with increasing proportion of heptane ([4]; isopropanol/heptane, 25° C.): decreased significantly
solubility at 15 min ([4]; IPA, 0° C.): < 1000 µg/mL
solubility at 15 min ([4]; IPA, 25° C.): ~8460 µg/mL
solubility at 15 min ([4]; IPA/heptane (1/1), 25° C.): ~2350 µg/mL
solubility at 15 min ([4]; IPA/heptane (1/3), 25° C.): < 1000 µg/mL
solubility at 15 min ([4]; IPA/heptane (5/1), 25° C.): 5890 µg/mL
solubility at 15 min ([4]; IPA/heptane (5/3), 25° C.): ~3570 µg/mL
Hygroscopicity by DVS (in words) ([5]; 25° C., 0 to 90% RH cycle): not hygroscopic
Solubility compared with Compound 1 Fumarate Form A Anhydrate [6]: much lower solubility
solubility [6]: 1000 µg/mL
Bulk Density, Average ([8]; average of three runs): 0.1239 g/mL
Bulk Density ([8]; single runs 1-3, untapped): 0.1288 g/mL and 0.1233 g/mL and 0.1196 g/mL
Outcome of competitive slurry (XRPD) ([7]; ethyl acetate, after 72 h): a mixture of Compound 1 Fumarate Form E and Compound 1 Fumarate Form A Anhydrate remained
Outcome of competitive slurry (XRPD) ([7]; isopropanol, after 24 h): more stable than Form A Anhydrate
Outcome of competitive slurry (XRPD) ([7]; water, after 72 h): a mixture of Compound 1 Fumarate Form E and Compound 1 Fumarate Form A Anhydrate remained

O=C(O)/C=C/C(=O)O [Fumaric acid]
Solubility in isopropanol (in words) ([4]; 25° C.): relatively low solubility

O=C(O)CO [Glycolic Acid]
pKa [2]: 3.28

O=C(O)c1cc2ccccc2c(Cc2c(O)c(C(=O)O)cc3ccccc23)c1O [Pamoic Acid]
pKa [2]: 2.51
